# Tests used:
# HOXB13 = target: T1, HOXB13 (Mus musculus, UniProt P70321); experiment: Thermal shift assay on purified HOXB13 DBD; assay type: binding
# T1 construct: made in house; host or cells: E. coli Rosetta (DE3) pLysS
# Description: In another exemplary method, thermal shift analysis of aminoglycosides towards Meis1 and HOXB13 was performed. Initially, […] binding domains (DBDs) of Meis1 and HOXB13 were cloned, expressed, and purified to conduct the thermal shift assay (FIGS. 2A-2B). […] Protein Expression and Purification. mMeis1 and mHoxb13 were subcloned into pETDuet vector with noncleavable N-terminal 6×His tag and transformed into Rosetta (DE3) pLysS cells (Novagen). Target protein were expressed in cultures grown in autoinduction media at 18° C. overnight. The culture was harvested and sonicated in lysis buffer (20 mM Tris [pH=8.0], 1 M NaCl, 0.5 mM DTT, and supplemented with protease inhibitors). […] The eluate was concentrated and purified by gel filtration chromatography. The peak fractions were collected and concentrated to about . . . 0 mg/mL for crystallization screening.
# [1] = test system: Meis1 transcriptional activity; experiment: Meis1 luciferase transcriptional activity assay in NRVMs; assay type: cell-based, rat; settings: 10-500 nM, compared to control (PBS for neomycin, paromomycin; DMSO for rutin, hesperidin)
# Source text: (§1) S1: HOXB13 DNA binding domain, S2: Meis1 DNA binding domain, and S3: Interacting interface between Meis1 and HOXB13 (PDB ID: 5EGO). […] Data are mean±s.e.m.; unpaired two-sided t-test. * P<0.05, ** P<0.01, *** P<0.001.
# [2] = test system: HOXB13 transcriptional activity; experiment: HOXB13 luciferase transcriptional activity assay in NRVMs; assay type: cell-based, rat; settings: 10-500 nM, compared to control (PBS for neomycin, paromomycin; DMSO for rutin, hesperidin)
# Source text: as §1
# [3] = test system: cardiomyocytes of neonatal heart; experiment: Cardiomyocyte proliferation in neonatal CD-1 mice; assay type: in vivo, mouse; settings: 300 mg/kg, i.p from p1 till p14, compared with controls
# Description: Paromomycin-neomycin was administered to neonatal CD-1 mice at 300 mg/kg, i.p from p1 till p14. Hearts were collected for histological analysis (FIG. 4A).
# Immunofluorescence staining. Heart cryosections were equilibrated with antigen retrieval buffer with 1 mM EDTA or epitope retrieval buffer (IHC World). Samples were permeabilized and blocked with 0.3% Triton X-100 and 10% serum from the host animal of secondary antibodies in PBS for 20 minutes at room temperature. Then, samples were incubated overnight at 4° C. with the primary antibodies. After three washes with PBS, samples were incubated for 1 hour at room temperature with corresponding fluorescence secondary antibodies conjugated to Alexa Fluor 488 or 555 (Invitrogen) at 1:400. The slides were mounted in Vectashield Antifade Mounting Medium (Vector Laboratories). Slides were viewed under Nikon fluorescence or Zeiss LSM 510 confocal microscopes. Primary antibodies used: phospho histone H3 Ser10 (EMD Millipore, 06-570; 1:100), aurora B kinase (Sigma, A5102; 1:25) to analyse cell cycle re-entry; troponin T, cardiac isoform Ab-1, clone 13-11 (Thermo Scientific, MS-295-P1; 1:200), sarcomeric α-actinin (Abcam, ab68167; 1:200) to identify cardiomyocytes. DAPI or Hoechst was used for nuclear staining. Images were obtained using a Nikon Eclipse Ni or Nikon A1 laser scanning confocal microscopes.
# [4] = test system: cardiomyocytes in the adult heart; experiment: Cardiomyocyte proliferation in adult mice with no injury stimuli; assay type: in vivo, mouse
# Description: In another exemplary method, cardiomyocyte proliferation in mice was assessed in the presence of paromomycin and paromomycin-neomycin. Based on the data resulting from the in vitro screening coupled and luciferase transcription activity assays detailed in the exemplary methods herein, paromomycin was initially selected to study its capacity to prolong cardiomyocytes proliferation in adult mice with no injury stimuli. The effect of paromomycin (Paro) (200 mg/kg/day, i.p.) and paromomycin-neomycin (Paro/Neo) combo (300 mg/kg/day, i.p.) was assessed after 2 weeks of injection on cell proliferation indices, cytokinesis, cardiomyocyte cell size, isolated cardiac cell count, and nucleation on the isolated cardiomyocytes in the adult heart (FIG. 3A, FIG. 4F). […] Animals. Mice were housed in a 12:12 h light: dark cycle in a temperature-controlled room with free access to water and food. Littermate controls were used whenever possible. Both male and female mice were used on age-matched and gender-matched mice. No statistical methods were used to predetermine sample size. All surgeries and echocardiographic studies were carried out blinded to the genotype of the mice during the experiments and outcome assessments. CD1 mice (Charles River Laboratories) were used for drug-tested studies. Drug administration. Tamoxifen (Sigma) was prepared by dissolving in sesame oil (Sigma) to a concentration of 10 mg ml^-1. For the MADM clonal analysis, 14 consecutive injections of tamoxifen were administered, and mice were euthanized 2 weeks after the last injection. For injection of Paromomycin and Neomycin, mice were administered twice daily. Mice were euthanized at the same time of day to limit circadian variability. Immunofluorescence staining. Heart cryosections were equilibrated with antigen retrieval buffer with 1 mM EDTA or epitope retrieval buffer (IHC World). Samples were permeabilized and blocked with 0.3% Triton X-100 and 10% serum from the host animal of secondary antibodies in PBS for 20 minutes at room temperature. Then, samples were incubated overnight at 4° C. with the primary antibodies. After three washes with PBS, samples were incubated for 1 hour at room temperature with corresponding fluorescence secondary antibodies conjugated to Alexa Fluor 488 or 555 (Invitrogen) at 1:400. The slides were mounted in Vectashield Antifade Mounting Medium (Vector Laboratories). Slides were viewed under Nikon fluorescence or Zeiss LSM 510 confocal microscopes. Primary antibodies used: phospho histone […] (EMD Millipore, 06-570; 1:100), aurora B kinase (Sigma, A5102; 1:25) to analyse cell cycle re-entry; troponin T, cardiac isoform Ab-1, clone 13-11 (Thermo Scientific, MS-295-P1; 1:200), sarcomeric α-actinin (Abcam, ab68167; 1:200) to identify cardiomyocytes. DAPI or Hoechst was used for nuclear staining. Images were obtained using a Nikon Eclipse Ni or Nikon A1 laser scanning confocal microscopes. WGA staining and cardiomyocyte size quantification. WGA staining and quantification was performed as previously described. In brief, the slides were incubated with WGA conjugated to Alexa Fluor 488 ([…], Life Technologies) for 1 hour at room temperature following washing with PBS. To quantify the cross-sectional cell size, three to five independent hearts per group with three different views and positions, each from left and right ventricles, and septum were captured at 40× magnification. ImageJ was used to quantify the size of cardiomyocytes that were round and contained a nucleus. At least 500 cells per sample were quantified. Cardiomyocyte isolation. Adult hearts were freshly collected and fixed in 4% paraformaldehyde at 4° C. overnight. The hearts were minced to smaller pieces and subsequently incubated with collagenase D (2.4 mg ml^-1, Roche) and B (1.8 mg ml^-1, Roche) for 12 h at 37° C. using an end-over-end shaker. The supernatants were collected via 160-μm nylon mesh filter, and the procedure was repeated until no more cardiomyocytes were dissociated from the tissue. […]
# [5] = test system: mouse adult heart after myocardial infarction (MI); experiment: Cardiac repair after myocardial infarction (LAD ligation) in adult mice; assay type: in vivo
# Description: In another exemplary method, the ability of the aminoglycosides on cardiac repair and heart regeneration was assessed in the mouse adult heart after following myocardial infarction (MI). MI was induced in adult mice by permanent ligation of the proximal left anterior descending coronary artery. This was followed by examining the expression of cell cycle inhibitors two weeks after MI (one week after drug(s) injection) by western blot analysis. […] Meanwhile, MI was induced to monitor the pharmacodynamics of the administered drug(s) to improve cardiac function and promote heart regeneration for 8-weeks (FIG. 5A). One week after injury, paromomycin and paromomycin-neomycin combo (200 mg/kg/day, i.p.) was administered while assessment of left ventricular ejection fraction (LVEF) by echocardiography was performed 1-week post-surgery, 1 week after drug(s) administration and every 2 weeks thereafter until 8 weeks post-surgery. Murine model of MI. Induction of adult anterior wall MI was performed as similar to the methods described in Nguyen et al., Nature (2020) 582, 271-276, the disclosure of which is incorporated herein in its entirety. In brief, three-month-old mice were subjected to MI by ligation of the proximal aspect of the LAD coronary artery. Mice were anaesthetized in an airtight chamber using 4% isoflurane, endotracheally intubated, and ventilated using a volume-control ventilator with 100% O2, supplemented with 2% vaporized isoflurane (Harvard Apparatus). Following lateral thoracotomy and pericardiectomy, the LAD coronary artery was identified along the anterior wall of the LV. Prolene sutures (6-0 non-absorbable) was used to ligate the LAD. Proper occlusion of the LAD artery was noted by three criteria: immediate blanching of the LV anterior wall myocardium below the ligature, echocardiographic assessment 7 days post-surgery showing an ejection fraction in the range of 45-65%, and histological analysis. Vicryl sutures (6-0 absorbable) were used to close the thoracic cavity. Drugs administrated one week after MI. Mice were subjected to echocardiography at serial time points and then euthanized at 3 months after ligation. Hearts were collected and processed for histology and immunohistochemistry. Fibrotic scar size was measured using MIQuant similar to the method described in Nascimento et al., PLOS One (2011) 6, e25045, the disclosure of which is incorporated herein in its entirety. Transthoracic echocardiography. Assessment of in vivo heart function on conscious, non-sedated mice was performed using a Vevo2100 micro-ultrasound system, M[…] probe (VisualSonics) at baseline, 1 week after injury, 1 week after drug administration, and 4, 8, 12 and 16 weeks after occlusion. Echocardiographic M-mode images were obtained from a parasternal short-axis view at the level of the papillary muscles. Left ventricular internal diameters at end diastole (LVIDd) and end systole (LVIDs) were measured from M-mode recordings. Six representative contraction cycles were selected for analysis, and average indexes (LVIDd, LVIDs and fractional shortening) were calculated for each mouse. All echocardiography measurements were performed in a blinded manner. Histology. Hearts were collected and fixed in 4% paraformaldehyde in PBS overnight at 4° C. and then processed for either paraffin or cryo embedding. […] Protein concentration was quantified using Pierce BCA protein assay kit (Pierce Biotechnology), with three biological replicates. […]
# [6] = adult CD-1 mice, i.p., 2 weeks, paromomycin 200 mg/kg, paromomycin-neomycin 300 mg/kg, Anti-Cnx43/DAPI, compared with controls
# [7] = adult mice, i.p., 2 weeks, Paro 200 mg/kg/day, Paro/Neo combo 300 mg/kg/day, compared to control
# [8] = adult mice, i.p., 2 weeks, Paro 200 mg/kg/day, Paro/Neo combo 300 mg/kg/day, compared to control-treated mice
# [9] = two weeks after MI (one week after drug(s) injection)
# T1 sequence (P70321 218-277 limits assumed): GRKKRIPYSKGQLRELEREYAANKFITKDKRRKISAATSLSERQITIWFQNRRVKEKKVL
Compound,change in the melting temperature of HOXB13 (HOXB13),luciferase transcriptional activity for Meis1 [1],luciferase transcriptional activity for HOXB13 [2],cardiomyocyte cytokinesis marker (AurkB and anti-cTnT co-immunostaining) [3],cardiomyocyte mitosis marker (anti-pH3 and anti-cTnT co-immunostaining) [3],"RFP+ and GFP+ single-labelled daughter cardiomyocytes ([4]; Mosaic Analysis with Double Markers (MADM) mice, lineage tracing, compared to control-treated mice)","bi- and multi-nucleation of isolated cardiomyocytes [4, 6]","mono-nucleation of isolated cardiomyocytes [4, 6]","cardiomyocytes cell size via wheat germ agglutinin (WGA) staining [4, 7]","cardiomyocytes undergoing cytokinesis via Aurkb+ staining [4, 7]","number of cardiomyocytes following dissociation of the heart by collagenase digestion ([4]; adult mice, i.p., 2 weeks, Paro 200 mg/kg/day, Paro/Neo combo 300 mg/kg/day, compared to control-treated hearts)","heart weight (HW)/body weight (BW) ratio [4, 8]","pH3+ cardiomyocytes (mitosis marker) [4, 8]","left ventricular ejection fraction (LVEF) by echocardiography ([5]; 8 weeks post-surgery, drug i.p. from one week after injury, compared to control-treated mice)","wet to dry lung ratio ([5]; MI mouse model, Paromomycin 200 mg/kg, i.p., Paromomycin-Neomycin 300 mg/kg, 8 weeks, compared to controls)","fibrotic scar (size) ([5]; histological analysis, 8 weeks post-MI, compared to control-treated hearts)","p15/16 proteins (cell cycle inhibitor), western blot [5, 9]","p21 protein (cell cycle inhibitor), western blot [5, 9]"
neomycin,noticeable change,significant downregulation,significant downregulation,–,–,–,–,–,–,–,–,–,–,–,–,–,–,–
"NC[C@@H]1O[C@H](O[C@H]2[C@@H](O)[C@H](O[C@@H]3[C@@H](O)[C@H](N)C[C@H](N)[C@H]3O[C@H]3O[C@H](CO)[C@@H](O)[C@H](O)[C@H]3N)O[C@@H]2CO)[C@H](N)[C@@H](O)[C@@H]1O [Paromomycin, paromomycin]",–,significant downregulation,significant downregulation,significant increase,significant increase,significant increased,significant decrease,significant increase,significant reduction,significant increase,significantly higher number,no significant difference,significant increase,maintain the LVEF,significant decrease,trending decline,decrease,decrease
"COc1ccc([C@@H]2CC(=O)c3c(O)cc(O[C@@H]4O[C@H](CO[C@@H]5O[C@@H](C)[C@H](O)[C@@H](O)[C@H]5O)[C@@H](O)[C@H](O)[C@H]4O)cc3O2)cc1O [Hesperidin, hesperidin]",–,poor inhibitory profile,poor inhibitory profile,–,–,–,–,–,–,–,–,–,–,–,–,–,–,–

# — US20250134917A1, “COMPOSITIONS AND METHODS OF REGENERATING HEART TISSUES WITH AMINOGLYCOSIDES” (The Board of Regents of The University of Texas System, priority 2022, published 2025)
